In the assay the target is T1, AhR (Homo sapiens, UniProt P35869).
T1 sequence (P35869 11-848): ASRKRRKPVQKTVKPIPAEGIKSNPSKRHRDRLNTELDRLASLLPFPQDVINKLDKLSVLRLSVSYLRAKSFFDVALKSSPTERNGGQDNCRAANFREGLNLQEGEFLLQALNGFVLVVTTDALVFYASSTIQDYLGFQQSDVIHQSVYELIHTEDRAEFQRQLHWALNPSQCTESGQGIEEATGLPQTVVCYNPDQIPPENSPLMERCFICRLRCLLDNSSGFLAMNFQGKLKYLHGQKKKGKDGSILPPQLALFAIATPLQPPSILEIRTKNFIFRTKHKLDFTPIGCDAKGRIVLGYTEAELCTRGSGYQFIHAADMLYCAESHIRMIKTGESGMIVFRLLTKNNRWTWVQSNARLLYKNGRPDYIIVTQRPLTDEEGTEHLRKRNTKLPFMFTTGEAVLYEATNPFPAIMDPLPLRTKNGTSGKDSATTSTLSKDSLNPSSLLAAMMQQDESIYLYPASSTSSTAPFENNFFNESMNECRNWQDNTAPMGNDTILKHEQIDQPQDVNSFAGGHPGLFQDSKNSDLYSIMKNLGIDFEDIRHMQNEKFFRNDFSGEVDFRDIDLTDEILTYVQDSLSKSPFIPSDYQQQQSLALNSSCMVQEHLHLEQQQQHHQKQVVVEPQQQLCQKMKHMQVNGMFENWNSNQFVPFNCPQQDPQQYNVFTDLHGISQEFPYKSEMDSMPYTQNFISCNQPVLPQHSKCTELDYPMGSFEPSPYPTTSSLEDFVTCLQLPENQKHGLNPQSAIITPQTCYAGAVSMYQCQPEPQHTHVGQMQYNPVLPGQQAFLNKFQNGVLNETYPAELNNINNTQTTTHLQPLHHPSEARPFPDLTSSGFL
Briefly: In Vitro Assay 1: XRE-luciferase reporter assay, antagonism in human cell line (HepG2). To be noted: Assay 1: AhR-Luc Human Antagonism (IC50, nM), values marked *: kynurenine 50 μM, 6 hours. (In general: Reporter assays use an easily measured gene product as a stand-in for the process of interest.)

Bounds are passed on as bounds.

Compound `Clc1ccc(-c2cc(N3CCN(C/C=C/c4ccccc4)CC3)nc(-c3cccnc3)n2)cc1` [Example 93, trans-4-(4-chlorophenyl)-6-(4-cinnamylpiperazin-1-yl)-2-(pyridin-3-yl)pyrimidine] showed an IC50 of 10 to 100 nM.

Turning to `Clc1ccc(-c2cc(N3CCN(c4ccccc4)CC3)nc(-c3cccnc3)n2)cc1` [Example 95, 4-(4-chlorophenyl)-6-(4-phenylpiperazin-1-yl)-2-(pyridin-3-yl)pyrimidine], the IC50 lay within 10 to 100 nM.

For the compound `CCCN1CCN(c2cc(-c3ccc(Cl)cc3)nc(-c3cccnc3)n2)CC1` [Example 96, 4-(4-chlorophenyl)-6-(4-propylpiperazin-1-yl)-2-(pyridin-3-yl)pyrimidine], the IC50 is under 10 nM.

In the case of `Clc1ccc(-c2cc(N3CCN(Cc4ccc5c(c4)OCO5)CC3)nc(-c3cccnc3)n2)cc1` [Example 97, 4-(4-(benzo[d][1,3]dioxol-5-ylmethyl)piperazin-1-yl)-6-(4-chlorophenyl)-2-(pyridin-3-yl)pyrimidine], the IC50 is under 10 nM.

Regarding `OC[C@@H]1CN(c2cc(-c3ccc(Cl)cc3)nc(-c3cccnc3)n2)CCN1` [Example 98, (S)-(4-(6-(4-chlorophenyl)-2-(pyridin-3-yl)pyrimidin-4-yl)piperazin-2-yl)methanol], the IC50 is over 1000 nM.

`Fc1ccc(N2CCN(c3cc(-c4ccc(Cl)cc4)nc(-c4cccnc4)n3)CC2)cc1` [Example 99, 4-(4-chlorophenyl)-6-(4-(4-fluorophenyl)piperazin-1-yl)-2-(pyridin-3-yl)pyrimidine] had an IC50 of 10 to 100 nM.

As for `CN1C(C)(C)CC(Nc2cc(-c3ccc(Cl)cc3)nc(-c3cccnc3)n2)CC1(C)C` [Example 100, 6-(4-chlorophenyl)-N-(1,2,2,6,6-pentamethylpiperidin-4-yl)-2-(pyridin-3-yl)pyrimidin-4-amine], the IC50 is over 1000 nM.

In turn, `Clc1ccc(-c2cc(NC3CCCNC3)nc(-c3cccnc3)n2)cc1` (stereo not shown) [Example 101, 6-(4-chlorophenyl)-N-(piperidin-3-yl)-2-(pyridin-3-yl)pyrimidin-4-amine] gave an IC50 of 100 to 1000 nM.

`Clc1ccc(-c2cc(N3CCNCC3)nc(-c3cccnc3)n2)cc1` [Example 102, 4-(4-chlorophenyl)-6-(piperazin-1-yl)-2-(pyridin-3-yl)pyrimidine] showed an IC50 of 100 to 1000 nM.

In turn, `C[C@@H]1CN(c2cc(-c3ccc(Cl)cc3)nc(-c3cccnc3)n2)C[C@H](C)N1` [Example 104, Cis-4-(4-chlorophenyl)-6-(3,5-dimethylpiperazin-1-yl)-2-(pyridin-3-yl)pyrimidine] registered an IC50 of over 1000 nM.

Turning to `CCN1CCN(c2cc(-c3ccc(Cl)cc3)nc(-c3cccnc3)n2)CC1` [Example 106, 4-(4-chlorophenyl)-6-(4-ethylpiperazin-1-yl)-2-(pyridin-3-yl)pyrimidine], the IC50 was in the range of 10 to 100 nM.

Turning to `CC(=O)N1CCN(c2cc(-c3ccc(Cl)cc3)nc(-c3cccnc3)n2)CC1` [Example 108, 1-(4-(6-(4-chlorophenyl)-2-(pyridin-3-yl)pyrimidin-4-yl)piperazin-1-yl)ethan-1-one], the IC50 is under 10 nM.

`CCC1CN(c2cc(-c3ccc(Cl)cc3)nc(-c3cccnc3)n2)CCN1` (stereo not shown) [Example 109, 4-(4-chlorophenyl)-6-(3-ethylpiperazin-1-yl)-2-(pyridin-3-yl)pyrimidine] returned a 50% inhibitory concentration (IC50) of over 1000 nM.

On to `CCOC(=O)N1CCN(c2cc(-c3ccc(Cl)cc3)nc(-c3cccnc3)n2)CC1` [Example 110, ethyl 4-(6-(4-chlorophenyl)-2-(pyridin-3-yl)pyrimidin-4-yl)piperazine-1-carboxylate], for which the IC50 is under 10 nM.

Regarding `O=C(O)C1CN(c2cc(-c3ccc(Cl)cc3)nc(-c3cccnc3)n2)CCN1` (stereo not shown) [Example 111, 4-(6-(4-chlorophenyl)-2-(pyridin-3-yl)pyrimidin-4-yl)piperazine-2-carboxylic acid], the IC50 was over 1000 nM.

`COC(=O)C1CNCCN1c1cc(-c2ccc(Cl)cc2)nc(-c2cccnc2)n1` (stereo not shown) [Example 112, methyl 1-(6-(4-chlorophenyl)-2-(pyridin-3-yl)pyrimidin-4-yl)piperazine-2-carboxylate] showed an IC50 of over 1000 nM.

Compound `Clc1ccc(-c2cc(N3CCNC[C@@H]3c3ccccc3)nc(-c3cccnc3)n2)cc1` [Example 113, (S)-4-(4-chlorophenyl)-6-(2-phenylpiperazin-1-yl)-2-(pyridin-3-yl)pyrimidine] yielded an IC50 of over 1000 nM.

`Cc1ccccc1N1CCN(c2cc(-c3ccc(Cl)cc3)nc(-c3cccnc3)n2)CC1` [Example 114, 4-(4-chlorophenyl)-2-(pyridin-3-yl)-6-(4-(o-tolyl)piperazin-1-yl)pyrimidine] came in with an IC50 of over 1000 nM.

In turn, `Cc1ccc(N2CCN(c3cc(-c4ccc(Cl)cc4)nc(-c4cccnc4)n3)CC2)cc1` [Example 115, 4-(4-chlorophenyl)-2-(pyridin-3-yl)-6-(4-(p-tolyl)piperazin-1-yl)pyrimidine] returned an IC50 of over 1000 nM.

The compound `Cc1cccc(N2CCN(c3cc(-c4ccc(Cl)cc4)nc(-c4cccnc4)n3)CC2)c1` [Example 116, 4-(4-chlorophenyl)-2-(pyridin-3-yl)-6-(4-(m-tolyl)piperazin-1-yl)pyrimidine] came in with an IC50 of over 1000 nM.

Take `FC(F)(F)c1cccc(N2CCN(c3cc(-c4ccc(Cl)cc4)nc(-c4cccnc4)n3)CC2)c1` [Example 117, 4-(4-chlorophenyl)-2-(pyridin-3-yl)-6-(4-(3-(trifluoromethyl)phenyl)piperazin-1-yl)pyrimidine]: the IC50 is 100 to 1000 nM.

`Clc1ccc(-c2cc(N3CCN(c4ccc(Cl)c(Cl)c4)CC3)nc(-c3cccnc3)n2)cc1` [Example 119, 4-(4-chlorophenyl)-6-(4-(3,4-dichlorophenyl)piperazin-1-yl)-2-(pyridin-3-yl)pyrimidine] registered an IC50 of over 1000 nM.

Compound `COc1ccc(N2CCN(c3cc(-c4ccc(Cl)cc4)nc(-c4cccnc4)n3)CC2)cc1` [Example 120, 4-(4-chlorophenyl)-6-(4-(4-methoxyphenyl)piperazin-1-yl)-2-(pyridin-3-yl)pyrimidine] showed an IC50 of under 10 nM.

Compound `O=[N+]([O-])c1ccc(N2CCN(c3cc(-c4ccc(Cl)cc4)nc(-c4cccnc4)n3)CC2)cc1` [Example 121, 4-(4-chlorophenyl)-6-(4-(4-nitrophenyl)piperazin-1-yl)-2-(pyridin-3-yl)pyrimidine] displayed a half-maximal inhibitory concentration (IC50) of over 1000 nM.

Turning to `CN1CCN(C2CCN(c3cc(-c4ccc(Cl)cc4)nc(-c4cccnc4)n3)C2)CC1` (stereo not shown) [Example 122, 4-(4-chlorophenyl)-6-(3-(4-methylpiperazin-1-yl)pyrrolidin-1-yl)-2-(pyridin-3-yl)pyrimidine], the IC50 lay in the range of 10 to 100 nM.

`Clc1ccc(-c2cc(N3CCN(C(c4ccccc4)c4ccccc4)CC3)nc(-c3cccnc3)n2)cc1` [Example 123, 4-(4-benzhydrylpiperazin-1-yl)-6-(4-chlorophenyl)-2-(pyridin-3-yl)pyrimidine] yielded a half-inhibitory concentration (IC50) of over 1000 nM.

`Clc1ccc(-c2cc(N3CCN(C(c4ccccc4)c4ccc(Cl)cc4)CC3)nc(-c3cccnc3)n2)cc1` (stereo not shown) [Example 124, 4-(4-chlorophenyl)-6-(4-((4-chlorophenyl)(phenyl)methyl)piperazin-1-yl)-2-(pyridin-3-yl)pyrimidine] yielded an IC50 of over 1000 nM.

`Clc1ccc(-c2cc(N3CCC4(C=Cc5ccccc54)CC3)nc(-c3cccnc3)n2)cc1` [Example 125, 1′-(6-(4-chlorophenyl)-2-(pyridin-3-yl)pyrimidin-4-yl)spiro[indene-1,4′-piperidine]] registered an IC50 of 100 to 1000 nM.

`Clc1ccc(-c2cc(NC3CCNC3)nc(-c3cccnc3)n2)cc1` (stereo not shown) [Example 126, 6-(4-chlorophenyl)-2-(pyridin-3-yl)-N-(pyrrolidin-3-yl)pyrimidin-4-amine] displayed an IC50 of over 1000 nM.

`Clc1ccc(-c2cc(N[C@@H]3CCNC3)nc(-c3cccnc3)n2)cc1` [Example 127, (R)-6-(4-chlorophenyl)-2-(pyridin-3-yl)-N-(pyrrolidin-3-yl)pyrimidin-4-amine] returned an IC50 of over 1000 nM.

`Clc1ccc(-c2cc(NC[C@@H]3CCNC3)nc(-c3cccnc3)n2)cc1` [Example 128, (R)-6-(4-chlorophenyl)-2-(pyridin-3-yl)-N-(pyrrolidin-3-ylmethyl)pyrimidin-4-amine] showed an IC50 of over 1000 nM.

`Clc1ccc(-c2cc(NCCN3CCCC3)nc(-c3cccnc3)n2)cc1` [Example 129, 6-(4-chlorophenyl)-2-(pyridin-3-yl)-N-(2-(pyrrolidin-1-yl)ethyl)pyrimidin-4-amine] displayed an IC50 of over 1000 nM.

As for `Clc1ccc(-c2cc(NCCCN3CCCC3)nc(-c3cccnc3)n2)cc1` [Example 130, 6-(4-chlorophenyl)-2-(pyridin-3-yl)-N-(3-(pyrrolidin-1-yl)propyl)pyrimidin-4-amine], the 50% inhibitory concentration (IC50) is over 1000 nM.

`CN1CCCC1CCNc1cc(-c2ccc(Cl)cc2)nc(-c2cccnc2)n1` (stereo not shown) [Example 131, 6-(4-chlorophenyl)-N-(2-(1-methylpyrrolidin-2-yl)ethyl)-2-(pyridin-3-yl)pyrimidin-4-amine] gave an IC50 of over 1000 nM.

Usually IC50 stands for the concentration that gives 50% inhibition.

Source of the values: patent publication US20230150970A1, “AMINOPYRIMIDINE DERIVATIVES AND THEIR USE AS ARYL HYDROCARBON RECEPTOR MODULATORS” (DONG-A ST CO., LTD., priority 2020, published 2023).
